Patent EP0341735A1, “N-acetyl-3-fluoroneuraminic acid as antiviral drug” (priority 1988, dated 1989)

Key:
[1] = system: sialidase produced by Streptococcus sp.; assay: Sialidase inhibition, 4-MU-NeuAc fluorescence assay; type: biochemical; conditions: same procedure as Example 1
Method: (§1) 100 µ ℓ of a 0.5 mM solution of 4-methylumbelliferyl-N-acetylneuraminic acid (4-MU-NeuAc) (a product of Nakarai Kagaku Co., Ltd) of the following formula: [drawing 15]
(§2) 100 µ ℓ of a 200 mM sodium acetate buffer (pH 4.2) and 100 µ ℓ of N-acetyl-3-fluoroneuraminic acid (compound 1) 4 to 400 µM were added to an enzyme solution ([…]) (10 mU/ml) of sialidase (a product of Nakarai Kagaku Co., Ltd.) product from Arthrobacter ureafaciens in a test tube, and the reaction was conducted in a water bath at 37 °C for 15 min. Then, 3.6 ml of a 200 mM glycine/NaOH buffer (pH 10.4) was added to the reaction mixture in the test tube to terminate the reaction. the concentration of 4-methylumbelliferone formed in the reaction solution was determined from its fluorescence intensity at an excitation wave length of 360 nm and an emission wave length of 440 nm with a fluorescence spectrophotometer (a product of Hitachi, Ltd.). The amount of free sialic acid was determined from this value.
(§3) The sialidase inhibition rate was determined according to the following formula: [formula]
(§4) The same procedure as that of Example 1 was repeated except that sialidases produced by Vibrio colerae and Streptococcus sp. were used, and then the inhibition rate of Compound 1 was determined.

[2] = molecular target: sialidase produced by Vibrio colerae (Vibrio cholerae serotype O1, UniProt P0C6E9); assay: as above; type: biochemical; conditions: same procedure as Example 1
sialidase produced by Vibrio colerae, sequence (P0C6E9 25-781): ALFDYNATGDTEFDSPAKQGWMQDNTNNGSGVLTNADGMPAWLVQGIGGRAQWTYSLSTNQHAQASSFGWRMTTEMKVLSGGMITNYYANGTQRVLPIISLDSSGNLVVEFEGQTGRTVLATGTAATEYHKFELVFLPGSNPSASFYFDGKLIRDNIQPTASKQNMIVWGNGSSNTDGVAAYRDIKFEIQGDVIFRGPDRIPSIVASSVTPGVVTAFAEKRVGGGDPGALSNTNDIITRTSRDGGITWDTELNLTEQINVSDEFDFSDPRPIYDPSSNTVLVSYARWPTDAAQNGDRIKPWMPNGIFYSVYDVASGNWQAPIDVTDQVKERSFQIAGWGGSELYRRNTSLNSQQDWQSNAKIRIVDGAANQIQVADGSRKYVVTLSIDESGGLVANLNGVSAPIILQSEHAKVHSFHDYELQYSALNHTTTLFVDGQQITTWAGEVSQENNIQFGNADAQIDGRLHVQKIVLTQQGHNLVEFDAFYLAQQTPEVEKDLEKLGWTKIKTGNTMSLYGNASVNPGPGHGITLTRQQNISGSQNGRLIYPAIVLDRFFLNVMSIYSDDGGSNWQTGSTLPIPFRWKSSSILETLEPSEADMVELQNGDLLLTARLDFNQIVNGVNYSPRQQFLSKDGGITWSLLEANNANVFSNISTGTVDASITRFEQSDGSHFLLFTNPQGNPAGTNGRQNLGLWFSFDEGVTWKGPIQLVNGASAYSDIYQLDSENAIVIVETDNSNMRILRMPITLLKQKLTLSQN
Method: as §1, §2, §3, §4

[3] = system: sialidase produced by Arthrobacter ureaffacients; assay: as above; type: biochemical, Arthrobacter ureafaciens; conditions: for Inhibition rate / NeuAc released: substrate 4-MU-NeuAc, pH 4.2, 37 °C, 15 min
Method: as §1, §2, §3

Female ICR mice = assay: Acute toxicity test by intravenous injection; type: in vivo; conditions: for Number of deaths: Intravenous injection, 10 mice per level, observation period 14 days
Method: The acute toxicity test of Compound 1 was conducted by an intravenous injection in female mice.
Animals used: Female ICR mice (6 week old) Medicine concentration: 13 to 15 W/V % in distilled water Number of mice for each level: 10 Observation period: 14 days.

CC(=O)N[C@H]1[C@H]([C@H](O)[C@H](O)CO)OC(O)(C(=O)O)C(F)[C@@H]1O (stereo partly drawn) [Compound 1, N-acetyl-3-fluoroneuraminic acid]
Inhibition rate ([1]; Compound 1 at 0.001 mM): 7.4%
NeuAc released ([1]; Compound 1 at 0.001 mM): 10.5 n mol
Inhibition rate ([1]; Compound 1 at 0.01 mM): 24.6%
NeuAc released ([1]; Compound 1 at 0.01 mM): 8.5 n mol
Inhibition rate ([1]; Compound 1 at 0.1 mM): 75.4%
NeuAc released ([1]; Compound 1 at 0.1 mM): 2.8 n mol
NeuAc released ([2]; Compound 1 at 0.001 mM): 5.9 n mol
inhibition at 1 µM ([2]; Compound 1 at 0.001 mM, read-out: Inhibition rate): -0.2%
NeuAc released ([2]; Compound 1 at 0.01 mM): 5.3 n mol
inhibition at 10 µM ([2]; Compound 1 at 0.01 mM, read-out: Inhibition rate): 8.4%
NeuAc released ([2]; Compound 1 at 0.1 mM): 2.8 n mol
inhibition at 100 µM ([2]; Compound 1 at 0.1 mM, read-out: Inhibition rate): 52.7%
Inhibition rate ([3]; Compound 1 at 0.001 mM): 14.3%
NeuAc released ([3]; Compound 1 at 0.001 mM): 23.0 n mol
Inhibition rate ([3]; Compound 1 at 0.01 mM): 48.9%
NeuAc released ([3]; Compound 1 at 0.01 mM): 14.0 n mol
Inhibition rate ([3]; Compound 1 at 0.1 mM): 82.0%
NeuAc released ([3]; Compound 1 at 0.1 mM): 4.9 n mol
inhibition pattern (Dixon plot) ([3]; Fig. 1, two different substrate concentrations): competitive with the substrate
activity of sialidase (inhibition, in words) ([3]; conclusion from Table 1): remarkably inhibits
Number of deaths (Female ICR mice; dose 200 mg): 0
Number of deaths (Female ICR mice; dose 400 mg): 0
Number of deaths (Female ICR mice; dose 600 mg): 0
toxicity (in words) (Female ICR mice; conclusion from Table 4): quite low
